Bounds are passed on as bounds.

In this assay the target is T1, human CCR1 (Homo sapiens, UniProt P32246).
T1 sequence (P32246 1-355): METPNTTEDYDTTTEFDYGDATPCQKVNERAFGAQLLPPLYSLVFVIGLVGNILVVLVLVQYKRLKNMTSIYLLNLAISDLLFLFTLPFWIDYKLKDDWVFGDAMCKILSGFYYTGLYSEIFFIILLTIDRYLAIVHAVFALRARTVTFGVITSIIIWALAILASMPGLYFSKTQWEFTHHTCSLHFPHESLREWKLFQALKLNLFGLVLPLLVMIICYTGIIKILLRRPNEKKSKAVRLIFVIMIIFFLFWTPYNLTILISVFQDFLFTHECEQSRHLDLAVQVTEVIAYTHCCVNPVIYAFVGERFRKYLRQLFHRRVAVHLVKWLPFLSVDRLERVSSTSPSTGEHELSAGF
Kind of assay: CCR1 binding protocol (SPA, [125I]-MIP-1α displacement). As to conditions: cell membrane expressing human CCR1, 0.1 nM [125I]-MIP-1α, 4 hours at ambient temperature; read-out: Relative potency (IC50). On the procedure:
The following protocol was used to test compounds for CCR1 binding. A mixture, including scintillation proximity assay (SPA) beads and cell membrane expressing human CCR1, was prepared in assay buffer (130 mM NaCl+5 mM KCl+1 mM MnCl+50 mM Tris HCl at pH 7.4+0.1% bovine serum albumin (BSA)) at the ratio of 50 μg/ml membrane to 10 mg/ml SPA beads. 10 μl of the mixture was transferred to each well of a 384-well assay plate yielding a final concentration for the membrane and SPA beads of 0.5 μg/well and 100 μg/well, respectively
To generate different concentrations of the test compound, compound stocks were prepared using 10 step ½ log dilutions with a high concentration of 10 mM in DMSO and the lowest concentration being DMSO only without compound. An intermediate 40× dilution was then prepared in the assay buffer. The compound was then transferred at 10 μl/well to the assay plate. 0.5 nM [^125 I]-labeled macrophage inflammatory protein-1α (MIP-1α, an endogenous CCR1 ligand) in the assay buffer was transferred to the assay plate at 5 μl/well, for a final ligand concentration of 0.1 nM. The assay plate was then centrifuged at 2500 rpm for 2 minutes and incubated for 4 hours at ambient temperature, at which time the raw data was recorded using microbeta. The IC50 was then calculated using Graphpad Prism.
For the compound `Cc1onc(-c2ccccc2)c1NC(=O)N1CCC[C@@H]1c1nnc(C)n1Cc1ccc(Cl)cc1` [Compound 126], the IC50 was less than 50 nM.

With `Cc1nnc([C@H]2CCCN2C(=O)NC2(c3ccccc3)CC2)n1Cc1ccc(Cl)nc1` [Compound 383], the IC50 was 50 to 500 nM. With `Cc1nnc([C@H]2CCCN2C(=O)Nc2cccnc2)n1Cc1ccc(Cl)cc1` [Compound 245], the IC50 lay within 500 to 5000 nM. On to `Cc1noc(C)c1NC(=O)N1CCC[C@@H]1c1nnc(C)n1C1(c2ccc(Cl)cc2)CC1` [Compound 324], for which the IC50 lay within 50 to 500 nM. As for `CS(=O)(=O)c1ccc(NC(=O)N2CCC[C@@H]2c2ncnn2Cc2ccc(Cl)cc2)cc1` [Compound 76], the IC50 was 50 to 500 nM. Take `Cc1nnc([C@H]2CCCN2C(=O)NC2CCCCC2)n1Cc1ccc(Cl)cc1` [Compound 185]: the IC50 was in the range of 50 to 500 nM. Regarding `COC(=O)c1cccc(NC(=O)N2CCC[C@@H]2c2nnc(C)n2Cc2ccc(Cl)cc2)c1C` [Compound 189], the concentration for half-maximal inhibition (IC50) is less than 50 nM. Turning to `O=C(N[C@H]1CCOc2cc(C(F)(F)F)ccc21)N1CCC[C@@H]1c1nncn1Cc1ccc(Cl)cc1` [Compound 107], the IC50 is less than 50 nM. Take `Cc1nnc([C@H]2CCCN2C(=O)Nc2ncc(Cl)cn2)n1Cc1ccc(Cl)cc1` [Compound 344]: the IC50 was 500 to 5000 nM. For `Cc1noc(C)c1NC(=O)N1CCC[C@@H]1c1noc(C)c1Cc1ccc(Cl)cc1` [Compound 7], the concentration for half-maximal inhibition (IC50) lay within 50 to 500 nM. As for `CNC(=O)c1ccc(C)c(NC(=O)N2CCC[C@@H]2c2nnc(C)n2Cc2ccc(Cl)cc2)c1` [Compound 216], the IC50 is less than 50 nM. With `Cc1nnc([C@H]2CCCN2C(=O)Nc2ccccn2)n1Cc1ccc(Cl)cc1` [Compound 253], the half-inhibitory concentration (IC50) lay in the range of 500 to 5000 nM. With `Cc1cc(C)[n+]([O-])c(C)c1NC(=O)N1CCC[C@@H]1c1nnc(C)n1Cc1ccc(Cl)cc1` [Compound 520] the figure was less than 50 nM; with `Cc1nnc([C@H]2CCCN2C(=O)Nc2ccc(Cl)nc2Cl)n1Cc1ccc(Cl)cc1` [Compound 395], less than 50 nM; with `Cc1c(NC(=O)N2CCC[C@@H]2c2nnc(C)n2Cc2ccc(Cl)cc2)ccc(C#N)c1C(F)(F)F` [Compound 527], less than 50 nM. Consider `CC1(C)CC(NC(=O)N2CCC[C@@H]2c2ncnn2Cc2ccc(Cl)cc2)c2ccccc2O1` (some centres unmarked) [Compound 85], for which the IC50 is 50 to 500 nM.

With `Cc1noc(C)c1Nc1c(N2CCC[C@@H]2c2nnc(C)n2Cc2ccc(Cl)cc2)c(=O)c1=O` [Compound 555], the IC50 was 500 to 5000 nM. For `Cc1nc(Cl)c(NC(=O)N2CCC[C@@H]2c2nnc(C)n2Cc2ccc(Cl)cc2)c(Cl)n1` [Compound 178], the IC50 is less than 50 nM. As for `O=C(N[C@H]1CCOc2cc(Cl)ccc21)N1CCC[C@@H]1c1ncnn1Cc1ccc(Cl)cc1` [Compound 65], the half-maximal inhibitory concentration (IC50) was in the range of 50 to 500 nM. Under `CCc1nnc([C@H]2CCCN2C(=O)Nc2ccc(C(F)(F)F)nc2C)n1Cc1ccc(Cl)cc1` [Compound 584] stands less than 50 nM; under `O=C(Nc1ccc(Cl)cc1F)N1CCC[C@@H]1c1nnsc1Cc1ccc(Cl)cc1` [Compound 628], 50 to 500 nM; under `CCc1nnc([C@H]2CCCN2C(=O)Nc2c(C)noc2-c2ccccc2)n1Cc1ccc(Cl)cc1` [Compound 203], less than 50 nM.

`Cc1cc(C)c(S(N)(=O)=O)cc1NC(=O)N1CCC[C@@H]1c1nnc(C)n1Cc1ccc(Cl)cc1` [Compound 469]: the IC50 is less than 50 nM. With `Cc1ccnc(C)c1NC(=O)N1CCC[C@@H]1c1nnc(C)n1Cc1ccc(Cl)cc1` [Compound 316] the figure was less than 50 nM; with `Cc1nc([C@H]2CCCN2C(=O)Nc2ccc(C(F)(F)F)cc2)n(Cc2ccc(Cl)cc2)n1` [Compound 92], 500 to 5000 nM. Consider `Cc1nc(C(F)(F)F)ccc1NC(=O)N1CCC[C@@H]1c1nncn1Cc1ccc(Cl)cc1` [Compound 557], for which the IC50 was less than 50 nM.

Take `CSc1ccc(NC(=O)N2CCC[C@@H]2c2nccn2Cc2ccc(Cl)cc2)cc1` [Compound 37]: the half-maximal inhibitory concentration (IC50) is less than 50 nM. Turning to `CNC(=O)c1ccc(Cl)c(NC(=O)N2CCC[C@@H]2c2nnc(C)n2Cc2ccc(Cl)cc2)c1` [Compound 315], the IC50 lay in the range of 50 to 500 nM. With `CC(=O)N1CCCC(CNC(=O)N2CCC[C@@H]2c2nnc(C)n2Cc2ccc(Cl)cc2)C1` (some centres unmarked) [Compound 599], the IC50 was in the range of 50 to 500 nM. For the compound `Cc1onc(-c2ccccc2)c1NC(=O)N1C[C@@H](O)C[C@@H]1c1nnc(C)n1Cc1ccc(Cl)cc1` [Compound 433], the IC50 was less than 50 nM. With `Cc1nnc([C@H]2C[C@H](O)CN2C(=O)NC2(c3ccc(C(F)(F)F)cc3)CC2)n1Cc1ccc(Cl)cc1` [Compound 436] the figure was less than 50 nM. Regarding `O=C(N[C@H]1CCOc2cc(C(F)(F)F)ccc21)N1CCC[C@@H]1c1nnnn1Cc1ccc(Cl)cc1` [Compound 55], the half-inhibitory concentration (IC50) was less than 50 nM. Regarding `Cc1nc(C(F)(F)F)ccc1NC(=O)N1CCC[C@@H]1c1ncnn1Cc1ccc(Cl)cc1` [Compound 548], the half-inhibitory concentration (IC50) fell in the range of 50 to 500 nM. For the compound `Cc1onc(-c2ccc(F)cc2)c1NC(=O)N1CCC[C@@H]1c1nnc(C)n1Cc1ccc(Cl)cc1` [Compound 297], the concentration for half-maximal inhibition (IC50) was less than 50 nM. `O=C(N[C@H]1CCCOc2ccc(Cl)cc21)N1CCC[C@@H]1c1nncn1Cc1ccc(Cl)cc1` [Compound 159]: the IC50 was 50 to 500 nM. With `Cc1nnc([C@H]2CCCN2C(=O)Nc2ccc(C#N)nc2)n1Cc1ccc(Cl)cc1` [Compound 396], the IC50 is 50 to 500 nM. Under `COC1C[C@H](c2nnc(C)n2Cc2ccc(Cl)cc2)N(C(=O)Nc2ccc(Cl)cc2F)C1` (some centres unmarked) [Compound 541] stands 50 to 500 nM; under `Cc1nc(C(F)(F)F)ccc1NC(=O)N1CCC[C@@H]1c1nnc(C)n1Cc1ccc(Cl)cc1` [Compound 404], less than 50 nM; under `Cc1nnc([C@H]2CCCN2C(=O)C(C)c2cc(C(F)(F)F)ccc2Cl)n1Cc1ccc(Cl)cc1` (some centres unmarked) [Compound 533], 50 to 500 nM. Turning to `Cc1nnc([C@H]2CCCN2C(=O)N[C@H]2CCc3ccccc32)n1Cc1ccc(Cl)cc1` [Compound 155], the IC50 fell in the range of 50 to 500 nM. `CC[C@H](NC(=O)N1CCC[C@@H]1c1nncn1Cc1ccc(Cl)cc1)c1cc2ccccc2o1` [Compound 116]: the half-maximal inhibitory concentration (IC50) is less than 50 nM. Turning to `Cc1nnc([C@H]2CCCN2C(=O)Nc2ccncc2)n1Cc1ccc(Cl)cc1` [Compound 237], the IC50 lay in the range of 50 to 500 nM. Under `CSc1ccc(NC(=O)N2CCC[C@@H]2c2ncnn2Cc2ccc(Cl)cc2)cc1` [Compound 67] stands 50 to 500 nM; under `Cc1noc(C)c1NC(=O)N1C[C@H](O)C[C@@H]1c1nnc(C)n1Cc1ccc(Cl)cc1` [Compound 447], 50 to 500 nM; under `O=C(Nc1ccc(SC(F)(F)F)cc1)N1CCC[C@@H]1c1nccn1Cc1ccc(Cl)cc1` [Compound 40], 50 to 500 nM. Regarding `Cc1nnc([C@H]2C[C@H](O)CN2C(=O)NCc2ccc(C(F)(F)F)cc2)n1Cc1ccc(Cl)cc1` [Compound 471], the IC50 was less than 50 nM. In the case of `Cc1nnc([C@H]2CCCN2C(=O)Nc2ccc3c(c2)N(C)C(=O)CO3)n1Cc1ccc(Cl)nc1` [Compound 381], the IC50 fell in the range of 500 to 5000 nM. Turning to `Cc1nnc([C@H]2CCCN2C(=O)Nc2cc(C(=O)N(C)C)ccc2C(F)(F)F)n1Cc1ccc(Cl)cc1` [Compound 379], the 50% inhibitory concentration (IC50) lay within 50 to 500 nM. Consider `CNC(=O)c1cc(C)cc(C)c1NC(=O)N1CCC[C@@H]1c1nnc(C)n1Cc1ccc(Cl)cc1` [Compound 210], for which the IC50 was less than 50 nM. Take `Cc1nnc([C@H]2CCCN2C(=O)NC2(c3ccccc3)CC2)n1Cc1ccc(Cl)c(Cl)c1` [Compound 412]: the concentration for half-maximal inhibition (IC50) was less than 50 nM.

(Values after patent US8288371B2, “Ortho pyrrolidine, benzyl-substituted heterocycle CCR1 antagonists for autoimmune diseases and inflammation” (Pharmacopeia, LLC, priority 2007, dated 2012).)
